We go through 47 compounds from USRE47221E1, “Tricyclic compounds” (AbbVie Inc., priority 2009, dated 2019).

Molecules are shown by their SMILES. Structures can show the parent of a compound that is named as a salt.

Test system in one data set: not given
Assay: not given
Consider `C[C@@H]1C[C@H](NS(=O)(=O)CCC(F)(F)F)C[C@@H]1c1cnc2cnc3[nH]ccc3n12` [Example #7, N-((1S,3S,4R)-3-(3H-imidazo[1,2-a]pyrrolo[2,3-e]pyrazin-8-yl)-4-methylcyclopentyl)-3,3,3-trifluoropropane-1-sulfonamide], for which the melting point (usually the temperature, or range, at which the solid turns liquid) was 225 °C.

The target in a further data set is T1, Jak3 (Homo sapiens, UniProt P52333).
T1 construct: Jak3 enzyme (aa 811-1103); expressed in SF9 cells as a GST fusion; GST; made in house; host or cells: SF9 insect cells
T1 sequence (P52333 811-1103): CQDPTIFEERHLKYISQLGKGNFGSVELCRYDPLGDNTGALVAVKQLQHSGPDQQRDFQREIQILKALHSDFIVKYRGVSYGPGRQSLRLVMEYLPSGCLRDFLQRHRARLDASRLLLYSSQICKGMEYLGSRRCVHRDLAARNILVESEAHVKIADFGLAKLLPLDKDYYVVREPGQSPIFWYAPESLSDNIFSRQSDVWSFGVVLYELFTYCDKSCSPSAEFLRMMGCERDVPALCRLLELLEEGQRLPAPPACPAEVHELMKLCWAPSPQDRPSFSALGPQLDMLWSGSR
The experiment in a line: Jak3 enzyme data for selected compounds. It counts as biochemical.
With `O=S(=O)(CCC(F)(F)F)N1CC2CN(c3ncc4cnc5[nH]ccc5n34)CC2C1` (centres unmarked) [D.1.64], the IC50 (as a rule, the point on the concentration scale where inhibition reaches its midpoint) is greater than 1000 nM.

As for `C[C@@H]1CCN(C(=O)N2CCC2)C[C@@H]1c1ncc2cnc3[nH]ccc3n12` [J.2.6], the IC50 is less than 100 nM.

Compound `C[C@@H]1CCN(C(=O)C2(C#N)CC2)C[C@@H]1c1ncc2cnc3[nH]ccc3n12` (racemic) [H.3.14] displayed an IC50 of 100 to 1000 nM.

Consider `CC[C@@H]1C[C@H](Nc2cnc(C#N)cn2)CN1c1ncc2cnc3[nH]ccc3n12` [Example #26, 5-((3S,5R)-5-ethyl-1-(6H-imidazo[1,5-a]pyrrolo[2,3-e]pyrazin-1-yl)pyrrolidin-3-ylamino)pyrazine-2-carbonitrile oxalate], for which the IC50 is 100 to 1000 nM.

On to `C[C@@H]1C[C@H](OCC2CC2)C[C@@H]1c1nnc2cnc3[nH]ccc3n12` [D.1.54], for which the IC50 is greater than 1000 nM.

Compound `CC[C@@H]1C[C@H](NS(=O)(=O)C2(CC)CC2)C[C@@H]1c1nnc2cnc3[nH]ccc3n12` [D.1.82] displayed an IC50 of 100 to 1000 nM.

The compound `CC[C@@H]1C[C@@H](Oc2ccc(C#N)cn2)C[C@@H]1c1nnc2cnc3[nH]ccc3n12` (single isomer, unassigned) [AA.1.29, 6-(3-ethyl-4-(6H-pyrrolo[2,3-e][1,2,4]triazolo[4,3-a]pyrazin-1-yl)cyclopentyloxy)-nicotinonitrile] showed an IC50 greater than 1000 nM.

Compound `C[C@H]1CCN(C(=O)N(C)C)C[C@H]1c1ncc2cnc3[nH]ccc3n12` (racemic) [I.2.2] yielded an IC50 of less than 100 nM.

In turn, `CC[C@@H]1C[C@H](NS(=O)(=O)CCN2CCOCC2)C[C@@H]1c1nnc2cnc3[nH]ccc3n12` [D.1.61] displayed an IC50 greater than 1000 nM.

The compound `CC[C@@H]1C[C@H](Oc2cnc(C#N)cn2)C[C@@H]1c1nnc2cnc3[nH]ccc3n12` (relative stereo) [AA.1.37, 5-(3-ethyl-4-(6H-pyrrolo[2,3-e][1,2,4]triazolo[4,3-a]pyrazin-1-yl)cyclopentyloxy)pyrazine-2-carbonitrile] yielded an IC50 of 100 to 1000 nM.

For `CC[C@@H]1C[C@H](NS(=O)(=O)C(C)(C)C)C[C@@H]1c1nnc2cnc3[nH]ccc3n12` [D.1.67], the IC50 was 100 to 1000 nM.

`CC[C@@H]1C[C@H](OCC2CC2)C[C@@H]1c1nnc2cnc3[nH]ccc3n12` (single isomer, unassigned) [AA.1.80, 1-(4-(cyclopropylmethoxy)-2-ethylcyclopentyl)-6H-pyrrolo[2,3-e][1,2,4]triazolo[4,3-a]pyrazine]: the IC50 was greater than 1000 nM.

Turning to `O=S(=O)(CCC(F)(F)F)N1CC2CC1CN2c1ncc2cnc3[nH]ccc3n12` (centres unmarked) [D.1.63], the IC50 is greater than 1000 nM.

The compound `CC[C@@H]1C[C@H](NS(=O)(=O)CCC(F)(F)F)CN1c1ncc2cnc3[nH]ccc3n12` [Example #27, N-((3S,5R)-5-ethyl-1-(6H-imidazo[1,5-a]pyrrolo[2,3-e]pyrazin-1-yl)pyrrolidin-3-yl)-3,3,3-trifluoropropane-1-sulfonamide] returned an IC50 greater than 1000 nM.

As for `CC[C@@H]1C[C@H](OCC2CCOCC2)C[C@H]1c1nnc2cnc3[nH]ccc3n12` (single isomer, unassigned) [AA.1.66, 1-(2-ethyl-4-((tetrahydro-2H-pyran-4-yl)methoxy)cyclopentyl)-6H-pyrrolo[2,3-e][1,2,4]triazolo[4,3-a]pyrazine], the IC50 was greater than 1000 nM.

Compound `O=C(N1CCC[C@@H](c2cnc3cnc4[nH]ccc4n23)C1)N1CCC(F)(F)C1` (single isomer, unassigned) [AA.1.8, (3-(3H-imidazo[1,2-a]pyrrolo[2,3-e]pyrazin-8-yl)piperidin-1-yl)(3,3-difluoropyrrolidin-1-yl)methanone] showed an IC50 of less than 100 nM.

On to `CC1(C)CCN(C(=O)N2CCC[C@@H](c3ncc4cnc5[nH]ccc5n34)C2)C1` [J.3.6], for which the IC50 was 100 to 1000 nM.

`CC1CCN(S(=O)(=O)CCC(F)(F)F)CCN1c1ncc2cnc3[nH]ccc3n12` (centres unmarked) [D.1.70] had an IC50 of 100 to 1000 nM.

In turn, `C[C@@H]1CCN(C(=O)N2CCC[C@@H]2C#N)C[C@@H]1c1ncc2cnc3[nH]ccc3n12` [J.2.2] gave an IC50 of less than 100 nM.

`C[C@@H]1CCN(C(=O)N2CC(F)C2)C[C@@H]1c1ncc2cnc3[nH]ccc3n12` [J.2.11] displayed a half-maximal inhibitory concentration (IC50) of less than 100 nM.

Compound `c1cc2c(ncc3ncn(C4CCCCC4)c32)[nH]1` [Example #21, 1-cyclohexyl-1,6-dihydroimidazo[4,5-d]pyrrolo[2,3-b]pyridine] yielded an IC50 of 100 to 1000 nM.

`CC[C@@H]1C[C@H](NS(=O)(=O)CC(F)(F)F)C[C@@H]1c1nnc2cnc3[nH]ccc3n12` [K.5.1] gave an IC50 of less than 100 nM.

On to `CC[C@@H]1C[C@@H](OCCC(F)(F)F)C[C@@H]1c1nnc2cnc3[nH]ccc3n12` (relative stereo) [AA.1.107, 1-(2-ethyl-4-(3,3,3-trifluoropropoxy)cyclopentyl)-6H-pyrrolo[2,3-e][1,2,4]triazolo[4,3-a]pyrazine], for which the IC50 was less than 100 nM.

Regarding `C[C@@H]1CCN(C(=NC#N)N2CCCC2)C[C@@H]1c1ncc2cnc3[nH]ccc3n12` [Example #5, N-(((3R,4R)-3-(6H-imidazo[1,5-a]pyrrolo[2,3-e]pyrazin-1-yl)-4-methylpiperidin-1-yl)(pyrrolidin-1-yl)methylene)cyanamide], the IC50 is 100 to 1000 nM.

The compound `CC[C@H]1C[C@@H](NS(=O)(=O)CCC(F)(F)F)C[C@H]1c1cnc2cnc3[nH]ccc3n12` (single isomer, unassigned) [AA.1.76, N-(3-ethyl-4-(3H-imidazo[1,2-a]pyrrolo[2,3-e]pyrazin-8-yl)cyclopentyl)-3,3,3-trifluoropropane-1-sulfonamide] displayed an IC50 greater than 1000 nM.

The compound `CC[C@@H]1C[C@H](Oc2cnc(C#N)cn2)C[C@H]1c1nnc2cnc3[nH]ccc3n12` (single isomer, unassigned) [AA.1.98, 5-(3-ethyl-4-(6H-pyrrolo[2,3-e][1,2,4]triazolo[4,3-a]pyrazin-1-yl)cyclopentyloxy)pyrazine-2-carbonitrile] returned an IC50 of less than 100 nM.

In turn, `C[C@@H]1CCN(C(=O)C2CC(F)(F)C2)C[C@@H]1c1ncc2cnc3[nH]ccc3n12` [H.1.21] showed an IC50 of less than 100 nM.

`O=C(N1CCCC1)N1CCC[C@@H](c2ncc3cnc4[nH]ccc4n23)C1` [I.3.1]: the IC50 fell in the range of 100 to 1000 nM.

On to `CC[C@@H]1C[C@H](OCc2ccc(OC)cc2)C[C@H]1c1nnc2cnc3[nH]ccc3n12` (single isomer, unassigned) [AA.1.32, 1-(2-ethyl-4-(4-methoxybenzyloxy)cyclopentyl)-6H-pyrrolo[2,3-e][1,2,4]triazolo [4,3-a]pyrazine], for which the IC50 lay in the range of 100 to 1000 nM.

In the case of `CC[C@@H]1C[C@H](OCC2CCOCC2)C[C@@H]1c1nnc2cnc3[nH]ccc3n12` (single isomer, unassigned) [AA.1.67, 1-(2-ethyl-4-((tetrahydro-2H-pyran-4-yl)methoxy)cyclopentyl)-6H-pyrrolo[2,3-e][1,2,4]triazolo[4,3-a]pyrazine], the IC50 was greater than 1000 nM.

For `CC[C@@H]1C[C@H](NS(=O)(=O)CCn2cc(C#N)cn2)C[C@@H]1c1nnc2cnc3[nH]ccc3n12` [YY.1.1, 2-(4-cyano-1H-pyrazol-1-yl)-N-((1S,3R,4S)-3-ethyl-4-(6H-pyrrolo[2,3-e][1,2,4]triazolo[4,3-a]pyrazin-1-yl)cyclopentyl)ethanesulfonamide], the IC50 is greater than 1000 nM.

Consider `C[C@@H]1CCN(C(=O)N2CC(F)(F)C2)C[C@@H]1c1ncc2cnc3[nH]ccc3n12` [J.2.5], for which the IC50 is less than 100 nM.

The compound `CC[C@@H]1C[C@H](NS(=O)(=O)N2CCC[C@H]2C(F)(F)F)CC1c1nnc2cnc3[nH]ccc3n12` (some centres unmarked) [D.1.12] displayed an IC50 of 100 to 1000 nM.

As for `C[C@@H]1C[C@H](NS(=O)(=O)N2CC(F)(F)C2)C[C@@H]1c1cnc2cnc3[nH]ccc3n12` (single isomer, unassigned) [Example #25], the IC50 was less than 100 nM.

`O=S(=O)(NC12CCC(c3ccc4cnc5[nH]ccc5n34)(CC1)CC2)C1CC1` [D.1.76] yielded an IC50 of 100 to 1000 nM.

With `C[C@@H]1C[C@H](Nc2cnc(C#N)cn2)C[C@@H]1c1cnc2cnc3[nH]ccc3n12` (single isomer, unassigned) [AA.1.16, 5-(3-(3H-imidazo[1,2-a]pyrrolo[2,3,-e]pyrazin-8-yl)-4-methylcyclopentylamino)pyrazine-2-carbonitrile], the IC50 fell in the range of 100 to 1000 nM.

On to `C[C@@H]1C[C@H](NS(=O)(=O)N2CCC(F)(F)C2)C[C@@H]1c1ncc2cnc3[nH]ccc3n12` [D.1.80], for which the IC50 was less than 100 nM.

As to `O=S(=O)(NC12CCC(c3cnc4cnc5[nH]ccc5n34)(CC1)CC2)C1CC1` [K.3.1], the IC50 is 100 to 1000 nM.

For `FC(F)(F)c1nc2cnc3[nH]ccc3c2n1C1CCCCC1` [D.1.52], the IC50 fell in the range of 100 to 1000 nM.

As to `CC[C@@H]1C[C@H](N(CC2CC2)S(=O)(=O)C2CC2)C[C@@H]1c1nnc2cnc3[nH]ccc3n12` [D.1.22], the IC50 is 100 to 1000 nM.

Turning to `O=S(=O)(CCC(F)(F)F)N1CCC2CC1CN2c1ncc2cnc3[nH]ccc3n12` (centres unmarked) [D.1.73], the half-inhibitory concentration (IC50) was greater than 1000 nM.

Take `C[C@H]1CCN(C(=O)N2CC[C@@H](C)[C@@H](c3ncc4cnc5[nH]ccc5n34)C2)C1` (racemic) [J.2.10]: the IC50 was less than 100 nM.

On to `CC[C@@H]1C[C@H](Nc2cnc(C#N)cn2)C[C@@H]1c1ncc2cnc3[nH]ccc3n12` [D.2.13], for which the IC50 was less than 100 nM.

Turning to `CC[C@@H]1C[C@H](NS(=O)(=O)N2CC(C#N)C2)C[C@@H]1c1nnc2cnc3[nH]ccc3n12` [D.2.5], the IC50 fell in the range of 100 to 1000 nM.

For `CC[C@@H]1C[C@H](N(C#N)S(=O)(=O)C2CC2)C[C@@H]1c1nnc2cnc3[nH]ccc3n12` [Example #32, N-cyano-N-((1S,3R,4S)-3-ethyl-4-(6H-pyrrolo[2,3-e][1,2,4]triazolo[4,3-a]pyrazin-1-yl)cyclopentyl)cyclopropanesulfonamide], the IC50 was 100 to 1000 nM.

As for `CCC1(S(=O)(=O)N[C@H]2C[C@@H](C)[C@@H](c3ncc4cnc5[nH]ccc5n34)C2)CC1` [D.1.83], the IC50 was less than 100 nM.
